# Data from patent US20140088114A1, “FUSED BICYCLIC KINASE INHIBITORS” (OSI Pharmaceuticals ,LLC, priority 2011, published 2014).
# Like-named read-outs stand apart in the source and are kept apart here.
# Key:
# Format in all cases: cell-based
# [1] = molecular target: T1, RON (Homo sapiens, UniProt Q04912); experiment: sfRON cell mechanistic assay (HeLa), phosphorylated RON
# T1 construct: expressed in transfected cells; host or cells: HeLa
# T1 sequence (Q04912 913-1400 limits assumed): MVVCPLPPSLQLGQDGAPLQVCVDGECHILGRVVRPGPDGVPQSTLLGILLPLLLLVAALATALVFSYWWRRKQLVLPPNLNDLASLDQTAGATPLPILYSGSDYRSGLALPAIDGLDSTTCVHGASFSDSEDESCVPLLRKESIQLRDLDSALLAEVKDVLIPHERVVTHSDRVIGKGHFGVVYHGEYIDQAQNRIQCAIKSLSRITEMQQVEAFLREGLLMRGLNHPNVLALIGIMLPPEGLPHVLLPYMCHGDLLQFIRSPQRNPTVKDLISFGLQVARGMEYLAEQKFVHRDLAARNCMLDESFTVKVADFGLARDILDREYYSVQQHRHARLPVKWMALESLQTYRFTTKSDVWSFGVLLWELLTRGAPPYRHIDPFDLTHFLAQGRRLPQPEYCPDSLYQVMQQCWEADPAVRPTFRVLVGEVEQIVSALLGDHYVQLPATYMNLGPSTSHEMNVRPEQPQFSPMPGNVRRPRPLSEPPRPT
# Procedure: The cellular activity of the compounds of the present invention against RON may be determined by the following procedure. HeLa cells were plated in Falcon 3072 96-well plates in growth media (DMEM, 10% FBS, 1% L-glutamine) at a density of 10000 cells/well and incubated at 37° C., 5% CO2 overnight. The following day, cells were transfected with 0.2 μg sfRON-pcDNA plasmid DNA with 0.5 μL Lipofectamine2000 per well in the presence of 50 μL OPTI-MEM, incubated at 37° C., 5% CO2 overnight. Costar 3915 96-well assay plates were coated with rabbit Anti-RON antibody at 2.0 μg/mL, sealed, and incubated overnight at 4° C. On the third day, coated plates were washed with PBS and blocked with 3% BSA. For the sfRON transfected cells, one-tenth volume of a 10× concentration of compounds was added to the wells in a 6-point dilution series. The dilution series was composed of an initial 1:5 dilution of a 10 mM DMSO stock solution of compound in DMSO, followed by a 1:10 dilution in growth media, for a final DMSO concentration on cells of 0.5%. Control wells were treated with 0.5% DMSO. The typical range of dilution was 10 μM to 3 nM. Once compound was added to the cells, plates were incubated for four hours at 37° C., 5% CO2. Plates were then washed in PBS, and lysed in triton-based lysis buffer. Lysates were transferred to the blocked capture plates. The phosphorylated RON levels were measured by incubating with a Goat polyclonal antibody against phosphorylated RON ([pYpY1238/1239]) followed by an anti-Goat antibody conjugated to HRP. Signal was measured on a Wallac Victor plate reader with luminance. The DMSO signal of the control wells was defined as 100% and the percent of inhibition of phosphorylated RON was expressed as percent of control. IC50 values were determined from the percent of control data using a standard four-parameter model.
# (§1) The IC50 values of exemplary compounds of the present invention determined in a sfRON cell mechanistic assay using the HeLa cell line according to the procedures described herein in at least duplicate experiments are abbreviated as follows and are shown in Table 3: A, IC50≦0.03 μM; B, 0.03 μM<IC50≦0.1 μM; C, 0.1 μM<IC50≦1 μM; D, 1 μM<IC50≦3 μM; ND, not determined. The Example # of Table 3 corresponds to the compound example number as illustrated in the Examples section.
# [2] = molecular target: T2, Aurora B (Homo sapiens, UniProt Q96GD4); experiment: Aurora B cell mechanistic assay (HT-29), phospho-Histone H3 (Ser10) ELISA; settings: HT-29 cell line, inhibition of phospho-Histone H3 (Ser10), at least duplicate experiments (italicized if single); read-out: Aurora B mech IC50
# T2 construct: HT-29 cells grown in complete growth media; endogenous in cells; host or cells: HT-29
# Procedure: The cellular activity of the compounds of the present invention against Aurora B may be determined by the following procedure. HT-29 cells grown in complete growth media (McCoy's 5A, 10% FCS, 1% L-glutamine) were plated into wells of a 96 well tissue culture plate (Falcon 3072) at a cell density of 4×10^4 cells/0.09 ml media/well. Cells were subsequently incubated overnight in a 5% CO2 humidified 37° C. incubator. The following day 10 μl of a 10× stock of test compound serially diluted in media was added to the cells and incubated for 1 h at 37° C. at which time Calyculin A (Cell Signaling #9902) was added at a concentration of 100 nM and cells incubated for an additional 30 minutes in a 5% CO2 humidified 37° C. incubator. Media was then aspirated and cells lysed using a Triton based lysis buffer. Lysates were transferred to a pre-coated anti-Histone H3 antibody coated plate supplied by Cell Signaling in their PathScan phospho-Histone H3 (Ser10) ELISA kit (#7155). After an overnight incubation with lysate the ELISA was continued following the manufacturer's instructions. Signal was measured on a Wallac Victor plate reader at 450 nm. DMSO control treated cells served as 100% signal and an Aurora B kinase inhibitor served as 100% inhibition. The percent inhibition of phospho-Histone H3 (Ser10) was expressed as % control. IC50 values were calculated from the percent control data using a standard four-parameter model.
# as §1, with “a Aurora B” for “a sfRON”, “the HT-29” for “the HeLa”, “Table 4:” for “Table 3:”, “determined. If only data from single experiments are available, the abbreviations are italicized.” for “determined.”, “Table 4” for “Table 3”
# [3] = system: Karpas-299 cells; experiment: Karpas-299 cell proliferation assay (CellTiter-Glo); settings: Homo sapiens, 72 h; Karpas-299 cell line (NPM-ALK), 3 days incubation, at least duplicate experiments; read-out: Prolif. IC50
# Procedure: The effect of inhibitors on the proliferation of Karpas-299 cells (DSMZ no. ACC 31) was determined using the following protocol. Karpas-299 cells were plated in 96-well white tissue culture treated plates (Corning 3917) in growth medium (RPMI, 10% FCS) at a density of 5000 cells/well in a total volume of 135 μL and incubated at 37° C., 5% CO2, 95% humidity overnight. The following day, one-tenth volume of a 10× concentration of compounds was added to the wells in an 8-point dilution series. Compounds were serially diluted (1:4) in DMSO from a 10 mM stock solution prior to dilution in growth media to the 10× working concentrations (5% DMSO). Final concentration of DMSO in compound-treated wells was 0.5%. Control wells containing growth media or growth media/0.5% DMSO were included in all test plates. The typical dilution range is 10 μM to 0.1 nM. Once the compounds were added to the cells, plates were incubated for 3 days at 37° C., 5% CO2 at 95% humidity. After 72 hours, all cells and reagents were equilibrated to room temperature and 15 μL of CellTiter-Glo reagent (Promega #G7573) was added to each well. Plates were shaken on a platform for 10 minutes at room temperature prior to reading luminescence. The value of the signal of the control wells was set as 100% growth and growth inhibition was expressed as percent of control. IC50 values were determined from the percent of control data using a standard four-parameter curve fit equation.
# as §1, with “a” for “a sfRON”, “cell proliferation” for “cell mechanistic”, “the Karpas-299” for “the HeLa”, “Table 5:” for “Table 3:”, “Table 5” for “Table 3”
# The Karpas-299 cell line has a t(2;5) chromosomal translocation and expresses the NPM-ALK fusion protein, resulting in constitutively active ALK. […] Ther. 6(12):3314-22 (2007)]. With this “ALK-driven” cell line by ALK, the cell proliferation IC50 values can thus be used as surrogate for the p-ALK cell mechanistic IC50 values.
# [4] = Table 6: comparison X = C1-3haloalkyl vs. X = C1-3alkyl, read-out: sfRON cell mechanistic
# T2 sequence (Q96GD4 whole entry): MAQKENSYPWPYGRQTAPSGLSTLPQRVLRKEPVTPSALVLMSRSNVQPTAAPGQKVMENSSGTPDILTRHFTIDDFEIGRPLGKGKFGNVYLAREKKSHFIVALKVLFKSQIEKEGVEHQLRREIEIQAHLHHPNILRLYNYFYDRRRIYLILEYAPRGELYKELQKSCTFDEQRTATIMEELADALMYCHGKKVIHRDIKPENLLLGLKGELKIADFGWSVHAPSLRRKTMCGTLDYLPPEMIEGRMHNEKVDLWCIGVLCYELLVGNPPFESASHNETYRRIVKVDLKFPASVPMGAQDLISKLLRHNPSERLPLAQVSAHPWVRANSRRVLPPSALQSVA
"IC50 [1, 4] [µM]","IC50 ([1]; sfRON transfected HeLa cells, four hours incubation, inhibition of phosphorylated RON, at least duplicate experiments, read-out: sfRON mech IC50) [µM]",IC50 [2] [µM],IC50 [3] [µM],SMILES
1 to 3,,,,CC(c1c(Cl)ccc(F)c1Cl)c1c[nH]c2ncc(-c3cnn(C)c3)cc12 (stereo not drawn) [reference compound]
0.03 to 0.1,,,,C[C@H](c1c(OC(F)F)ccc(F)c1Cl)c1c[nH]c2ncc(-c3cnn([C@H]4CC[C@H](O)CC4)c3)cc12 [reference compound]
,1 to 3,0.1 to 1,0.1 to 1,"COc1ccc(F)c(Cl)c1[C@H](CF)c1c[nH]c2ncc(-c3cnn([C@H]4CC[C@H](O)CC4)c3)cc12 [Example 2, trans-4-(4-{3-[(1R)-1-(2-chloro-3-fluoro-6-methoxyphenyl)-2-fluoroethyl]-1H-pyrrolo[2,3-b]pyridin-5-yl}-1H-pyrazol-1-yl)cyclohexanol]"
0.1 to 1,,,,COc1ccc(F)c(Cl)c1[C@@H](C)c1c[nH]c2ncc(-c3cnn([C@H]4CC[C@H](O)CC4)c3)cc12 [reference compound]
